Laboratory results from paper PMC10698726 (Molecular Pharmaceutics, 2023).
Like-named read-outs stand apart in the source and are kept apart here.

Experiments:
OCT1 = target: T1, OCT1 (Homo sapiens, UniProt O15245); experiment: Inhibition of model substrate uptake in OCT1-overexpressing HEK293 cells; format: cell-based; set-up: expressed in transfected cells; host or cells: HEK293; settings: for IC50: 2 μM ASP+ or ethambutol as model substrate; for IC50 / inhibition at 5 min, 20 μM: 5 min; for inhibition at 5 min, 20 μM / selectivity ratio at 5 min: human, OCT1-overexpressing HEK293 cells; for inhibition at 5 min, 20 μM: OCT1, 20 μM inhibitor; for selectivity ratio at 5 min: pH 7.4, ratio of the IC50 values of both isomers, label = isomer named in the cell (as a rule the one with the higher IC50), read-out: Stereoselectivity (x-fold for the named isomer)
T1 sequence (O15245 1-554): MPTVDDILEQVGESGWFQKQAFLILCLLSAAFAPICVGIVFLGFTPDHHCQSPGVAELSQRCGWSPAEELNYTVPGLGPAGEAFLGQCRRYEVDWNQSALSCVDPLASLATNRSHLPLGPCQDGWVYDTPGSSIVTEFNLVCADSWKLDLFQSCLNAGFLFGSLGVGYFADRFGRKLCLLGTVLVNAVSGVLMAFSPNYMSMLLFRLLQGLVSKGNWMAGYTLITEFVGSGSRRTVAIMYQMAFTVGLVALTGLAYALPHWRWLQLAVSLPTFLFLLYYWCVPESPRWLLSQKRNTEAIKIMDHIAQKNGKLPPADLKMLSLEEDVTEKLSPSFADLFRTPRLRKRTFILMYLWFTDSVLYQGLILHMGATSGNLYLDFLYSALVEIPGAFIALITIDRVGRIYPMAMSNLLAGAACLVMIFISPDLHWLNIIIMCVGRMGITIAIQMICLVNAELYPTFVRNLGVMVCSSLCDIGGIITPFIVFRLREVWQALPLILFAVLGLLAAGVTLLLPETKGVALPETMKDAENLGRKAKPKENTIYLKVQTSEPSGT
Procedure: (§1) Koepsell and Gorbulev (University of Würzburg, Germany).
Fluorescence quantification was performed in technical duplicates.

OCT3 = target: T2, OCT3 (Homo sapiens, UniProt O75751); experiment: Concentration-dependent uptake of model substrates, OCT3-overexpressing HEK293 cells; format: in vitro ADME; settings: vmax over Km, this study
T2 construct: expressed in transfected cells; host or cells: HEK293
T2 sequence (O75751 1-556): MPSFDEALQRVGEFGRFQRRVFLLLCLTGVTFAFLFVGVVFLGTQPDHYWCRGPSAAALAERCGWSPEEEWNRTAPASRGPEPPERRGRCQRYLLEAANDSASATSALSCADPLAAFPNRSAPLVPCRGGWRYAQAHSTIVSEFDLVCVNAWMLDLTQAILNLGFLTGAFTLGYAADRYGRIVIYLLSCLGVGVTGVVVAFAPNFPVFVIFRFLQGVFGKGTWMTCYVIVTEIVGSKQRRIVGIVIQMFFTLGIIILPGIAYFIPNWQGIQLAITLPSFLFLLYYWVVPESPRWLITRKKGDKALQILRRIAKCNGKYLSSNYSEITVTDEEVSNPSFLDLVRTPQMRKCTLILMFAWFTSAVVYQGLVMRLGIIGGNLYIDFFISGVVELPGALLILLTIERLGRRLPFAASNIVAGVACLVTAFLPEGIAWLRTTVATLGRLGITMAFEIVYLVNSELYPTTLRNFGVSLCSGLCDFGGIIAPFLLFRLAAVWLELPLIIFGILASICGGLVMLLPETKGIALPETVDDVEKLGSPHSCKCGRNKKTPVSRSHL
Procedure: as §1
Prior to inhibition studies, the used model substrates were validated in concentration-dependent uptake experiments if no literature data were available (Table S2 and Figures S2 and S3). Thereby, we ensured that the model substrate concentration used in the subsequent inhibition experiments was sufficiently below the Km value of its uptake kinetics. […] On the day of the experiment, the cells were washed once with prewarmed to 37 °C HBSS (Thermo Fisher Scientific, Darmstadt, Germany) supplemented with 10 mM HEPES and pH adjusted to 7.4 (Sigma-Aldrich)—hereafter termed HBSS+. For concentration-dependent experiments, the cells were incubated with increasing substrate concentrations for 2 min. Uptake was terminated by adding ice-cold HBSS+. Afterward, the cells were washed twice with ice-cold HBSS+, and cell lysis was done with 80% (v/v) acetonitrile (LGC Standards, Wesel, Germany) to which an internal standard for eventual LC–MS/MS analysis had been added. Intracellularly accumulated substrates were then quantified by LC–MS/MS analysis, and calibration was performed with known concentrations of the respective substances. All uptake data were normalized to the number of seeded cells by measuring the total protein content in radioimmunoprecipitation assay buffer-lysed cells in a bicinchoninic acid assay.[29]

[1] = pH 7.4, probe (S,S)-ethambutol (2 μM), (S,S)-Ethambutol inhibition [%], 2 μM (S,S)-ethambutol
[2] = pH 7.4, probe ASP+ (2 μM), 2 μM ASP+, mean of three experiments, read-out: ASP+ inhibition [%]
[3] = pH 7.4, probe sumatriptan (2 μM), 2 μM sumatriptan, read-out: Sumatriptan inhibition [%]

IC50 (OCT1; OCT1, Table S5, read-out: IC50) [µM]	inhibition at 5 min, 20 μM (OCT1; [1]) [%]	inhibition at 5 min, 20 μM (OCT1; [2]) [%]	inhibition at 5 min, 20 μM (OCT1; [3]) [%]	Clint ± SEM (OCT3)	IC50 (OCT1; IC50, OCT1, Table S5) [µM]	Compound	selectivity ratio at 5 min (OCT1; OCT1, Table S5)
32.2	34.9	12.1	35.6	–	–	CCCN[C@H]1CCc2nc(N)sc2C1 [(S)-Pramipexole]	1.6
–	26.9	10	44.5	24.0	–	CN(C)CCc1c[nH]c2ccc(C[C@H]3COC(=O)N3)cc12 [(S)-Zolmitriptan]	–
–	93.7	49.1	73	–	171	CCN(CC)CC#CCOC(=O)[C@](O)(c1ccccc1)C1CCCCC1 [(R)-Oxybutynine]	1.2
